In patent US5709901A (priority 1994, dated 1998):
Entries after “also recorded” stand apart in the source; their conditions may differ. Square brackets hold non-standard residues; d marks the D form. Peptide text beside a SMILES is read from it. * marks the point of attachment. Sta = CC(C)C[C@H](N)[C@@H](O)CC(=O)O; Isovaleryl = CC(C)CC(=O)*

Tests used:
[1] = system: PF-1; format: biochemical, Bacillus sp. KSM-PF1; details: for residual activity of PF-1 relative to control as 100: pH 7
[2] = system: PF-2; format: biochemical, Bacillus sp. KSM-PF2; details: for residual activity of PF-2 relative to control as 100: pH 7
[3] = Meat tenderization test of conventional proteases (background); details: for time to overtenderize the meat: 0.1 based on the weight of the meat
Excerpt: As a meat tenderizer there has been heretofore used a protease. One of the most frequently used meat tenderizers is papain derived from papaya. However, papain is disadvantageous in that it is hard to control in tenderization (i.e., control over the progress of tenderization to a proper level) and its use is restricted by the added amount thereof and the processing time. In fact, papain was subjected to meat tenderization test. As a result, even when used in an amount as extremely small as 0.1 based on the weight of the meat to be tested, this enzyme overtenderized the meat within 1 hour at room temperature and in a period of time as short as 24 hours at a temperature as low as 4° C. The meat thus overtenderized was too unsavory to be served. This is because proteases derived from plants have a low substrate specificity.
On the other hand, a method has been proposed which comprises the specific decomposition of a connective tissue in a meat with elastase, which has a high substrate specificity, to tenderize the meat (JP-A-4-197156 (The term "JP-A" as used herein means an "unexamined published Japanese patent application"), JP-A-5-276899). However, this approach is disadvantageous in that elastase is hard to produce and must be used in a relatively large amount and requires a prolonged processing time to exert desired effects as compared with the foregoing proteases. It has also been point out that elastase cannot tenderize a meat sufficiently even if the added amount thereof and the processing time are increased (JP-A-6-169729).

[4] = Meat tenderization test, 5-mm thick round (Example 3, FIG. 1); details: for tenderizing effect (in words) / time in which the tenderizing effect is exerted: 5-mm thick meat, 20° C., per 10 g: PF-1 100 U, papain 10 U or 1 U, elastase 250 U; for tenderizing effect (in words): PF-2 45 U; for time to overtenderizing effect: 5 mm or 15 mm
Description: The metalloprotease of the present invention preferably tenderizes round in such a manner that the shear force value of the round thus tenderized is from 20% to 70% (preferably from 25% to 65%, particularly from 30% to 50% of that of the untenderized round (round which has not been processed with the metalloprotease of the present invention) when the round has a thickness of 5 mm. The shear force value as defined herein is determined by subjecting the meat sample to cutting by a meat shear (Warner Bratzler Type 3000, available from Warner Bratzler Corp.). The meat sample is obtained by subjecting round to enzymatic processing at a temperature of 20° C., and then grilled-the round thus processed on both sides thereof at 200° C. (grilled on one side for 1 minute and one the other side for 45 seconds).
As the meat to be tested there was used a low grade round (100 g) imported from Australia. The meat was sliced to 5-mm thick pieces by a meat slicer. Prominent strings were removed. About 20 g of the sliced meat was then molded. The molded meat was uniformly sprinkled with the enzyme powder, covered with a wrap, and then allowed to stand at room temperature (20° C.) for a predetermined period of time. The meat thus processed was then grilled over a 200° C. hot plate for 1 minute on one side and for 45 seconds on the other side. The meat thus grilled was then cut into 3-cm wide strips. The strips were then measured for shear force value (SFV) by means of a meat shear (Warner Bratzler Type 3000, available from Warner Bratzler Corp.). As comparative enzymes, a papain powder (available from Amano Co., Ltd.) and an elastase powder (reagent available from Sigma Co., Ltd.) were subjected to the same meat tenderization test as mentioned above.

[5] = Meat tenderization test, 15-mm thick round (Example 4, FIG. 2); details: 15-mm thick meat, 20° C., per 10 g: PF-1 100 U, papain 10 U or 1 U, elastase 250 U; for tenderizing effect (in words): PF-2 45 U
Description: The same meat as used in Example 3 was sliced perpendicular to muscular fibers to 15-mm thick pieces by a meat slicer. A maximum homogeneous portion of the sliced meat was molded into an about 30 g rod. The molded meat was uniformly sprinkled with the enzyme powder, covered with a wrap, and then allowed to stand at room temperature (20° C.) for a predetermined period of time. The meat thus processed was then grilled over a 200° C. hot plate for 3 minutes on each side. The meat thus grilled was cut into 2-cm wide strips which were then measured for shear force value in the same manner as in Example 3. As comparative enzymes, the same papain powder (available from Amano Co., Ltd.) and elastase powder (reagent available from Sigma Co., Ltd.) as used in Example 3 were subjected to the same meat tenderization test as mentioned above.

Molecule	inhibition of PF-1 activity (in words) [1]	residual activity of PF-1 relative to control as 100 [1] [%]	inhibition of PF-2 activity (in words) [2]	residual activity of PF-2 relative to control as 100 [2] [%]	other results
O[C@H](CS)[C@H](O)CS (racemic) [DTT, dithiothreitol]	not inhibited	70	not inhibited	81	–
[Ca+2].[Cl-].[Cl-] [CaCl2]	–	104	–	76	–
[Cl-].[Cl-].[Co+2] [CoCl2]	–	103	–	78	–
[Cl][Cu][Cl] [CuCl2]	–	37	–	20	–
O=C(O)CN(CCN(CC(=O)O)CC(=O)O)CC(=O)O [EDTA, ethylenediaminetetraacetic acid]	inhibited	45	inhibited	30	–
[Cl][Fe][Cl] [FeCl2]	–	–	–	28	–
[Cl][Fe]([Cl])[Cl] [FeCl3]	–	98	–	9	–
[Cl][Hg][Cl] [HgCl2]	–	40	–	62	–
[Cl-].[Cl-].[Mg+2] [MgCl2]	–	107	–	74	–
[Cl][Mn][Cl] [MnCl2]	–	103	–	62	–
O=C(O)CI [Monoiodoacetic acid, monoiodoacetic acid]	not inhibited	105	not inhibited	100	–
[Cl][Ni][Cl] [NiCl2]	–	92	–	28	–
O=S(=O)(F)Cc1ccccc1 [PNSF, phenylmethanesulfonylfluoride]	not inhibited	124	not inhibited	80	–
CC(C)CC(=O)N[C@H](C(=O)N[C@H](C(=O)N[C@@H](CC(C)C)[C@@H](O)CC(=O)N[C@@H](C)C(=O)N[C@@H](CC(C)C)[C@@H](O)CC(=O)O)C(C)C)C(C)C [Pepstatin, pepstatin] (Isovaleryl-VV[Sta]A[Sta]-OH)	not inhibited	108	not inhibited	100	–
[Cl-].[Cl-].[Zn+2] [ZnCl2]	–	88	–	58	–
elastase	–	–	–	–	tenderizing effect (in words) ([3]; reagent grade elastase): slightly tenderized; also recorded: the tenderness thus obtained was insufficient; tenderizing effect (in words) ([4]; listed as elastase powder): some tenderizing effect; also recorded: a proper tenderness cannot be obtained; time in which the tenderizing effect is exerted [4]: 24 h; tenderizing effect, summary of Examples 3 and 4 (in words) ([4]; meat thickness either 5 mm or 15 mm, up to 24 hours): cannot exert an effect of properly tenderizing the meat; tenderizing effect (in words) ([5]; listed as elastase powder): some tenderizing effect; also recorded: a proper tenderness cannot be obtained; time in which the tenderizing effect is exerted [5]: 24 h
leupeptine [Leupepsin]	not inhibited	82	not inhibited	91	–
papain (protein, UniProt P00784 134-345, looked up) Papain: IPEYVDWRQKGAVTPVKNQGSCGSCWAFSAVVTIEGIIKIRTGNLNEYSEQELLDCDRRSYGCNGGYPWSALQLVAQYGIHYRNTYPYEGVQRYCRSREKGPYAAKTDGVRQVQPYNEGALLYSIANQPVSVVLEAAGKDFQLYRGGIFVGPCGNKVDHAVAAVGYGPNYILIKNSWGTGWGENGYIRIKRGTGNSYGVCGLYTSSFYPVKN	–	–	–	–	time to overtenderize the meat ([3]; 4° C.): 24 h; time to overtenderize the meat ([3]; room temperature): ≤ 1 h; tenderizing effect (in words) [4]: overtenderizing effect; time in which the tenderizing effect is exerted [4]: several; time to overtenderizing effect ([4]; used in a large amount): several minutes to scores of minutes; time to overtenderizing effect ([4]; used in a reduced amount): several hours; tenderizing effect (in words) [5]: overtenderizing effect; time in which the tenderizing effect is exerted [5]: several
